Reference: ChEMBL document CHEMBL1122397, “Synthesis and pharmacological characterization of (+/-)-5,9 alpha-dimethyl-2-[2-(4-fluorophenyl)ethyl]-2'-hydroxy-6,7-benzomorphan (fluorophen), a ligand suitable for visualization of opiate receptors in vivo” (J Med Chem, 1983)

Tests used:
Mus musculus = organism: Mus musculus; experiment: cells; details: Rattus norvegicus, Brain, 3 h
Opioid receptor = Opioid receptor (Rattus norvegicus, UniProt P33533+P34975+P33535); experiment: (§1) Ability to displace 50% of (+/-) ethylketocyclazocine (2.8) in rat brain homogenate; type: tissue-based
Rattus norvegicus [1] = organism: Rattus norvegicus; experiment: Relative potency in displacing [3H]- labeled DADLE in rat brain homogenate
[2] = biological target: Mu-type opioid receptor (Cavia porcellus) (UniProt P97266); experiment: Relative potency to induce 50% of maximal effect in guinea pig ileum expressing Opioid receptor mu 1; type: tissue-based
[3] = biological target: T1, Kappa-type opioid receptor (Homo sapiens, UniProt P41145); experiment: Relative potency to induce 50% of maximal effect in rabbit vas deferens expressing Opioid receptor kappa 1; details: Oryctolagus cuniculus
Rattus norvegicus [4] = organism: Rattus norvegicus; experiment: Ability to displace 50% of (-) naloxone(1.0) in rat brain homogenate
[5] = biological target: T1, Kappa-type opioid receptor; experiment: Ability to induce 50% of maximal effect in rabbit vas deferens expressing Opioid receptor kappa 1; type: tissue-based, Oryctolagus cuniculus
Rattus norvegicus [6] = organism: Rattus norvegicus; experiment: Relative potency in displacing (-) naloxone(1.0) in rat brain homogenate
[7] = biological target: Delta-type opioid receptor (Mus musculus) (UniProt P32300); experiment: Relative potency to induce 50% of maximal effect in mouse vas deferens expressing Opioid receptor delta 1
Rattus norvegicus [8] = organism: Rattus norvegicus; experiment: Relative potency in displacing ((+/-) ethylketocyclazocine (2.8)) in rat brain homogenate
Rattus norvegicus [9] = organism: Rattus norvegicus; experiment: Ability to displace 50% of [3H]- labeled DADLE in rat brain homogenate
Rattus norvegicus [10] = organism: Rattus norvegicus; experiment: as §1
Mu-type opioid receptor = Mu-type opioid receptor (Cavia porcellus, UniProt P97266); experiment: Ability to induce 50% of maximal effect in guinea pig ileum expressing Opioid receptor mu 1; type: tissue-based
Sequence of Mu-type opioid receptor (P97266 whole entry): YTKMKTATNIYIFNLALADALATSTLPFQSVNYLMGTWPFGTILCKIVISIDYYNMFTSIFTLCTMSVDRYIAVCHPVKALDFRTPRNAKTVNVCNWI

T1 sequence (P41145 whole entry): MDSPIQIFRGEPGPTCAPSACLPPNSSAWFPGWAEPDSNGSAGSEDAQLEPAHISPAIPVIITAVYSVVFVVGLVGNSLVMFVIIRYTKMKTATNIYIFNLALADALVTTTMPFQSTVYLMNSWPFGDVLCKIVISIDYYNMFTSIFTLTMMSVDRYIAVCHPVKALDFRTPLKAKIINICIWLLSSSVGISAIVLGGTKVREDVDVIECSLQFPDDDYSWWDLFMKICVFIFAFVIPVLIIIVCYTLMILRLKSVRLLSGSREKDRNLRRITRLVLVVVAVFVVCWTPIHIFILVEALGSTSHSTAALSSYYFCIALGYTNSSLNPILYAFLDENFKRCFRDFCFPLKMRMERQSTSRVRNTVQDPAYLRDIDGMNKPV
Sequence of Delta-type opioid receptor (Mus musculus) (P32300 whole entry, looked up): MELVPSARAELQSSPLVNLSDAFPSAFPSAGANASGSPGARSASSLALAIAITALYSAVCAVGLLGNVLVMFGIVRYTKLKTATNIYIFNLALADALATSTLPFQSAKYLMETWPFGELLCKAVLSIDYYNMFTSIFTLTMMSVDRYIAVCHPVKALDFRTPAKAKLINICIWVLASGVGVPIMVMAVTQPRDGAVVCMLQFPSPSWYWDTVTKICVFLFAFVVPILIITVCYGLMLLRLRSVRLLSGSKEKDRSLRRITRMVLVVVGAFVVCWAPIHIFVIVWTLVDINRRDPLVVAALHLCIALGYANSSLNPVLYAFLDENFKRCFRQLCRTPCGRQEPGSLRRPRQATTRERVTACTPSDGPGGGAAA
Sequence of Mu-type opioid receptor (Cavia porcellus) (P97266 whole entry): as the sequence (P97266 whole entry) above

## CC(C)C[C@H](NC(=O)[C@H](Cc1ccccc1)NC(=O)CNC(=O)CNC(=O)[C@@H](N)Cc1ccc(O)cc1)C(=O)O [ENKEPHALIN]
Mus musculus
  IC50: 0.011 µM

## CC[C@@]12CCN(CC3CC3)C(C(=O)c3ccc(O)cc31)[C@@H]2C [ETHYLKETOCYCLAZOCINE]
Opioid receptor
  IC50: 0.0084 µM

## CC1C2Cc3ccc(O)cc3C1(C)CCN2CCc1ccccc1 (stereo not drawn) [PHENAZOCINE]
Rattus norvegicus [1]
  Relative Potency: 0.42
[2]
  Relative Potency: 7.9
[3]
  Relative Potency: 0.4
Rattus norvegicus [4]
  IC50: 0.082 µM
[5]
  IC50: 0.121 µM
Rattus norvegicus [6]
  Relative Potency: 2.4
[7]
  Relative Potency: 1.2
Rattus norvegicus [8]
  Relative Potency: 0.13
Rattus norvegicus [9]
  IC50: 0.026 µM
Rattus norvegicus [10]
  IC50: 0.065 µM
Mu-type opioid receptor
  IC50: 0.0098 µM
